Measurements from PMC4957904, “A novel validated assay to support the discovery of new anti-malarial gametocytocidal agents” (Malaria Journal, 2016).
“Also recorded” adds a separate entry of the source.

Experiments:
[1] = cytotoxicity, short-term resazurin-based reductase assay; cited from earlier work
[2] = test system: late-stage (stage V) Plasmodium falciparum gametocytes; test: Cidal vs static activity assay by qPCR of late-stage gametocyte-specific mRNA (Pf77, ROM3, Pfg377); assay type: cell-based; conditions: for cidal vs static effect against late-stage gametocytes (mRNA profile T∞ vs T48) / increase in Ct values after drug removal (T48) / increase in Ct values, constant drug pressure (T∞) / decrease in mRNA levels (fold change), constant drug pressure (T∞): Pf77 coding gene; for cidal vs static effect against late-stage gametocytes (mRNA profile T∞ vs T48): 144 h, concentrations of Table 1; for increase in Ct values after drug removal (T48): drug present 48 h, then 96 h without drug (T48); for increase in Ct values, constant drug pressure (T∞) / decrease in mRNA levels (fold change), constant drug pressure (T∞): drug present for 144 h (T∞); for increase in Ct values, constant drug pressure (T∞): 20 × IC50 (EX 2 × IC50); for decrease in mRNA levels (fold change), constant drug pressure (T∞): from Ct increase; for reduction of mRNA levels after drug removal (T48): drug present only 48 h (T48), from Ct values
Protocol: The in vitro cidal or static anti-malarial activity of a compound against the later stages of gametocyte development at day 15 was assessed by measuring mRNA levels in P.falciparum over 144 h following drug treatment (Fig. 1). Drug activity assays were performed once in two independent cultures in T-75 flasks (Corning, NY, USA). Late-stage gametocytes were incubated with drug and 6 % haematocrit over 48 h. […] IC50 values were obtained from Lelievre et al.. To remove drug from the medium, parasite cultures were harvested and washed two times with 25 ml of RPMI. After drug removal, the parasites were cultured for a further 96 h with complete culture medium either without or with drug, at the same concentration as the initial incubation, to evaluate the reversibility of the compound effect. Medium was changed daily and two samples of 1000 µl of culture at 0, 48, 96, and 144 h were taken, centrifuged and immediately stored at −80 °C for further analysis. An untreated culture was used as a […].
Fig. 1 Scheme showing the cidal vs static in vitro activity assay against stage V Plasmodium falciparum gametocytes. Gametocytes were incubated for 48 h with 20 × IC50. After drug was washed out, the parasites were cultured for 96 h with complete culture medium with drug (A) or without drug (B) to evaluate the reversibility of compound effects. Two samples at t = 0, 48, 96, and 144 h were taken for RNA extraction, cDNA synthesis and qPCR amplification. Comparison of mRNA levels of treated P. falciparum cultures upon removal of the drug was used to assess the cidal vs static activity
For RNA extraction, RNeasy Plus mini kit (Qiagen, Hilden, Germany) was used according to the standard protocol supplied by the manufacturer. cDNA synthesis and SYBR green qPCR were performed in duplicate following the protocol already published by Bahamontes-Rosa et al.. Melting curve analysis was always performed at the end of each assay as a specificity control.
Threshold cycle (Ct) values from the measurement of the cDNA samples were obtained in duplicate using the 7000 and the 7500 fast system Software (Applied Biosystem) and further analysed using an excel data sheet (Microsoft Corporation). The average value was taken as the result and only duplicate Ct values within ±1 Ct difference were accepted. Ct values were used to quantify the relative amount of target PCR product present in each reaction; values are inversely proportional to the amount of template in the sample.
Gene expression during gametocytogenesis was represented with an adaptation of the method described by Livak and Schmittgen as (Ctgene−Ct18S rRNA)Ttime […](Ctgene−Ct18S rRNA)T0, considering the expression at time 0 (T0) as the basal expression and using the 18S rRNA gene as housekeeping gene. Absolute quantification (direct comparison of Ct values) was considered the most appropriate method for the drug activity assays.
Two different treatments were performed in parallel, one with constant drug pressure throughout the experiment (T∞), 144 h in total, and another in which the gametocyte cultures were exposed to the compound for only 48 h, the drug was washed out and then cultured for a further 96 h in fresh complete culture medium (T48) (see Fig. 1).

[3] = test system: 3D7A P. falciparum mature gametocytes; design: method as in PMID 22514702; conditions: ATP bioluminescence assay, read-out: P.f. gametocytes IC50; cited from earlier work
[4] = test system: late-stage (stage V) Plasmodium falciparum gametocytes; test: Cidal vs static activity assay by qPCR of late-stage gametocyte-specific mRNA (Pf77, ROM3, Pfg377); assay type: cell-based; conditions: Pf77 coding gene; 48 h drug treatment only; TCMDC-125114 at 100 × IC50; CQ at 2, 20 and 125 × asexual IC50
[5] = test system: oocysts; design: method as in PMID 26317851; conditions: SMFA ex vivo, assayed at 2.5 µM; cited from earlier work

CC(C)c1ccc(NC(=S)NN=Cc2ccccn2)cc1 [TCMDC-125520]
TOX50 [1]: 12.80 µM | cidal vs static effect against late-stage gametocytes (mRNA profile T∞ vs T48) [2]: static; also recorded: prolonged reduction in mRNA levels only when the drug was continuously present | increase in Ct values after drug removal (T48) [2]: ≤ 2 Ct | increase in Ct values, constant drug pressure (T∞) [2]: ~5 Ct | decrease in mRNA levels (fold change), constant drug pressure (T∞) [2]: ca. 100 fold | reduction of mRNA levels after drug removal (T48) [2]: less than tenfold | IC50 [3]: 9.8 nM

CN1CCOc2ccc(Nc3nnc(-c4cccc(-c5cccnc5)c4)o3)cc2C1 [TCMDC-134278]
TOX50 [1]: 19.95 µM | IC50 [3]: > 5000 nM

CCN(CC)CCCC(C)Nc1ccnc2cc(Cl)ccc12 (centres unmarked) [Chloroquine, reference compound]
cidal vs static effect against late-stage gametocytes (mRNA profile T∞ vs T48) [2]: did not affect mature gametocytes | IC50 [3]: 23500 nM | effect on Ct values at increasing concentrations, 48 h drug exposure (minimal gametocytocidal concentration) [4]: no Ct increase

C=C(NC(=O)C(=C)NC(=O)c1csc(C2=N[C@@H]3c4csc(n4)[C@H]4NC(=O)c5csc(n5)[C@H]([C@](C)(O)[C@@H](C)O)NC(=O)[C@H]5CSC(=N5)/C(=C/C)NC(=O)[C@H]([C@@H](C)O)NC(=O)c5csc(n5)[C@]3(CC2)NC(=O)[C@H](C)NC(=O)C(=C)NC(=O)[C@H](C)NC(=O)[C@H]([C@@H](C)CC)N[C@@H]2C=Cc3c([C@H](C)O)cc(nc3[C@H]2O)C(=O)O[C@@H]4C)n1)C(N)=O [Thiostrepton, reference compound]
cidal vs static effect against late-stage gametocytes (mRNA profile T∞ vs T48) [2]: static | increase in Ct values, constant drug pressure (T∞) [2]: at least 5 Ct | decrease in mRNA levels (fold change), constant drug pressure (T∞) [2]: ≥ 100 fold | reduction of mRNA levels after drug removal (T48) [2]: less than tenfold | IC50 [3]: 900 nM

Br.Cc1ccnc(Nc2nc(-c3ccccn3)cs2)c1 [TCMDC-125769]
TOX50 [1]: >25 µM | cidal vs static effect against late-stage gametocytes (mRNA profile T∞ vs T48) [2]: static; also recorded: prolonged reduction in mRNA levels only when the drug was continuously present | increase in Ct values after drug removal (T48) [2]: ≤ 2 Ct | increase in Ct values, constant drug pressure (T∞) [2]: ~5 Ct | decrease in mRNA levels (fold change), constant drug pressure (T∞) [2]: ca. 100 fold | reduction of mRNA levels after drug removal (T48) [2]: less than tenfold | IC50 [3]: 40 nM

CN(C)c1ccc2nc3ccc(=[N+](C)C)cc-3sc2c1 [Methylene blue, reference compound]
TOX50 [1]: 6.52 µM | cidal vs static effect against late-stage gametocytes (mRNA profile T∞ vs T48) [2]: cidal | IC50 [3]: 490 nM

Cc1[nH]c2ccccc2c1C(=O)C(C)Sc1n[nH]c(-c2ccccc2Br)n1 (centres unmarked) [TCMDC-125114]
reduction in the number of oocysts [5]: 100% | TOX50 [1]: >50 µM | cidal vs static effect against late-stage gametocytes (mRNA profile T∞ vs T48) [2]: prolonged reduction in mRNA levels only when the drug was continuously present | increase in Ct values, constant drug pressure (T∞) [2]: 7 Ct | decrease in mRNA levels (fold change), constant drug pressure (T∞) [2]: more than 100 fold | IC50 [3]: 130 nM | effect on Ct values at increasing concentrations, 48 h drug exposure (minimal gametocytocidal concentration) [4]: cidal activity

C[C@H]1[C@@H](O)O[C@@H]2O[C@@]3(C)CC[C@H]4[C@H](C)CC[C@@H]1[C@@]24OO3 [Dihydroartemisinin, reference compound]
TOX50 [1]: >50 µM | cidal vs static effect against late-stage gametocytes (mRNA profile T∞ vs T48) [2]: static | increase in Ct values, constant drug pressure (T∞) [2]: at least 5 Ct | decrease in mRNA levels (fold change), constant drug pressure (T∞) [2]: ≥ 100 fold | reduction of mRNA levels after drug removal (T48) [2]: less than tenfold | IC50 [3]: 3560 nM

COc1cccc(NC(=O)[C@H](C(C)C)n2c(=O)[nH]c3ccccc3c2=O)c1 [TCMDC-125133]
reduction in the number of oocysts [5]: 100% | TOX50 [1]: >50 µM | cidal vs static effect against late-stage gametocytes (mRNA profile T∞ vs T48) [2]: prolonged reduction in mRNA levels only when the drug was continuously present | increase in Ct values, constant drug pressure (T∞) [2]: 7 Ct | decrease in mRNA levels (fold change), constant drug pressure (T∞) [2]: more than 100 fold | IC50 [3]: 540 nM

CCNCc1cccc(-c2ccc3ccnc(N)c3c2)c1 [TCMDC-136869]
TOX50 [1]: 12.59 µM | IC50 [3]: 1660 nM

CNC(=S)NN=C(C)c1ccccn1 [TCMDC-123475]
TOX50 [1]: >25 µM | cidal vs static effect against late-stage gametocytes (mRNA profile T∞ vs T48) [2]: prolonged reduction in mRNA levels only when the drug was continuously present | increase in Ct values, constant drug pressure (T∞) [2]: 7 Ct | decrease in mRNA levels (fold change), constant drug pressure (T∞) [2]: more than 100 fold | IC50 [3]: 9.8 nM

CC[C@H](C)[C@H](NC(=O)[C@H]([C@@H](C)CC)N(C)C(C)=O)C(=O)N[C@H](C(=O)N[C@@H](CC(C)C)C(=O)[C@@]1(C)CO1)[C@@H](C)O [Epoxomicin, reference compound]
TOX50 [1]: 0.003 µM | cidal vs static effect against late-stage gametocytes (mRNA profile T∞ vs T48) [2]: static | increase in Ct values, constant drug pressure (T∞) [2]: at least 5 Ct | decrease in mRNA levels (fold change), constant drug pressure (T∞) [2]: ≥ 100 fold | reduction of mRNA levels after drug removal (T48) [2]: less than tenfold | IC50 [3]: 0.5 nM
